# Article PMC5552691, “Novel giardicidal compounds bearing proton pump inhibitor scaffold proceeding through triosephosphate isomerase inactivation” (Scientific Reports, 2017)
# Legend:
# [1] = biological target: T1, triosephosphate isomerase of G. lamblia (GlTIM) (Giardia intestinalis, UniProt P36186, C202A); test: Inactivation assay of recombinant GlTIM (C202A variant); format: biochemical; details: for kinact/KI: pH 7.4, read-out: Second-order rate constant of inactivation; for Inactivation of GlTIM (in words): 2 hours at 37 °C
# T1 construct: His-tag (N, cleaved yes); TEV protease recognition site (N); made in house; host or cells: Escherichia coli
# Experimental: We evaluated the effect of compounds incubating the enzyme with each one of them for 2 hours at 37 °C and the IC50 values were then calculated from the residual activity data.
# GlTIM (200 µg/mL) was incubated with increasing concentrations of compounds. After 2 hours of incubation at 37 °C, the reactions were stopped by dilution and the remaining activity was determined as described in the material and methods section.
# (§1) For all assays we used mutant GlTIM C202A in order to work with the dimeric form of enzyme; this mutant was referred in the paper as GlTIM and was prepared as described before. The recombinant GlTIM containing a His-tag in its NH-terminal together with a recognition region for tobacco […] virus protease, was expressed in Escherichia coli. The GlTIM purification was performed by using IMAC method; after His-tag was removed, the enzyme was stored at 4 °C in a buffer containing 100 mM triethanolamine, 10 mM EDTA, pH 7.4 (TE buffer). […] Mutant of GlTIM C222A and human TIM (HsTIM) were prepared as described before, [33]. Protein content of GlTIM and HsTIM was calculated by using a ε M ^−1cm^−1 of 26,600 and 32,595, respectively. For all assays, the enzymes were freshly prepared with no more of two weeks of storage.
# TIM activity was determined in a Cary50 spectrophotometer (Varian) at 25 °C using coupling assay following the conversion of D-glyceraldehyde 3-phosphate to dihydroxyacetone phosphate as described before. The reaction mixture contained TE buffer (pH 7.4) supplemented with 0.2 mM NADH, 1 mM GAP, and 0.9 U of alpha-GDH. The reaction started by adding 5 ng/mL of TIM.
# (§2) Omeprazole and compounds stock solutions were freshly prepared using 100% DMSO as solvent. […] The reaction was stopped by diluting the enzyme 40,000 times in TE buffer and then, the remaining activity was determined. The second-order rate constants of inactivation were calculated from obtaining the pseudo-first order rate constant (k 1) values at each fixed concentration of compounds by fitting them to an exponential decay. Then, the k 1 values were re-plotted against the employed concentrations of each compound; the second-order rate constant value of inactivation was obtained from the slope of these plots.
# GlTIM = biological target: T2, GlTIM (Giardia intestinalis, UniProt P36186, C202A); test: Quantification of free Cys of derivatized GlTIM (Ellman's reagent); format: biochemical, Giardia lamblia; details: for Number of free Cys per monomer after treatment: GlTIM 6 mg/mL (214 µM), compound 1 mM, two hours at 37 °C; for Number of free Cys per monomer after treatment and then DTT: derivatized enzyme incubated with 5 mM DTT during 15 minutes
# T2 construct: His-tag (N, cleaved yes); TEV protease recognition site (N); made in house; host or cells: Escherichia coli
# Experimental: We evaluated the first option by determining the residual free Cys after derivatization with compounds and afterwards reducing agent treatment. Thus, 6 mg/mL (214 µM) of GlTIM was incubated with or without each one of compounds (1 mM) during two hours at 37 °C. It is important to remark that at the protein concentration used for this aim, a considerable quantity was precipitated. Therefore, the incubation of the samples was arrested by centrifuging and then filtration through a 3 mL Sephadex G-25 column, and the number of free Cys quantified from the soluble protein. […] In contrast, the number of Cys per monomer obtained for omeprazole, BHO2 and BHO3 treatment was respectively 2.02 ± 0.02, 1.9 ± 0.2 and 2.15 ± 015. […] An aliquot of each derivatized enzyme was withdrawn and incubated with 5 mM DTT during 15 minutes; then, the samples were filtered and the free Cys was again quantified. The number of Cys/monomer was 2.2 ± 0.2, 2,1 ± 0.22 and 1.8 ± 0.18 for omeprazole, BHO2 and BHO3, respectively.
# To carry out the experiments, the derivatized GlTIM with different molecules was incubated with 2 mM DTT and then filtered through 3 mL Sephadex G-25 column to remove the unreacted compounds. All spectroscopic assays were carried out at protein concentration of 0.2 mg/mL (7 µM). Cysteine quantification was performed spectrophotometrically using de Ellman’s reagent as described before, [36]. Briefly, 200 µg of GlTIM were suspended in TE buffer supplemented with 5% SDS; after an incubation of 10 min at 25 °C, the enzyme was added to a cuvette containing 500 µL of TE buffer supplemented with 5% SDS and 1 mM DTNB. Cysteine quantification was done following the increase of absorbance at 412 nm, using an ε M ^−1 cm ^−1 of 13,600[36].
# [2] = test system: G. lamblia WB trophozoites; test: Susceptibility assay of Giardia trophozoites; format: cell-based, Giardia lamblia; details: Giardia duodenalis; 48 hours at 37 °C with compound, then 48 hours in compound-free medium; ± standard error
# Experimental: The anti-giardiasic ability of compounds was tested in an in vitro. […] Thus, for BHO2 and BHO3 the values (130 and 122 µM, respectively) were around of the half of that obtained for omeprazole (300 µM).
# Figure 6 Anti-giardiasic activity of Compounds in trophozoites. Cultures of trophozoites (100,000 trophozoites/mL) were incubated during 48 hours at 37 °C with increasing concentrations of compounds. Afterward, samples were withdrawn and resuspended in a medium free of compounds. The samples were incubated for other 48 hours/37 °C and thereafter, the viability of trophozoites were quantified. The values represent ± standard deviation from three independent experiments.
# We used the G. lamblia WB reference isolate in all experiments. The splitting method used to our susceptibility assays is described below. Cultures with 100,000 trophozoites/mL on TYI-S-33 medium were incubated during 48 hours at 37 °C supplemented with increasing concentrations of compounds ranging from 32.5 to 500 µM. Afterward, samples were chilled in ice for 15 minutes, washed with medium and resuspended in 50 µL of medium free of compounds and antibiotic. Then, trophozoites were diluted in 1 mL of medium free of compounds and antibiotic, incubated for 48 hours at 37 °C and then, the viability of trophozoites was manually quantified by using a Neubauer chamber; the viability percent and IC50 was subsequently calculated.
# [3] = Cytotoxicity assay (MTT) in human fibroblasts; format: cell-based; details: human, gingival human fibroblasts, 95% confidence limits in square brackets
# Experimental: (§3) The cytotoxic effect of these compounds was also evaluated in mammal cell cultures and their CC50 values calculated and depicted in Table 2.
# (§4) We used the cell lines VERO (ATCC:CCL-81) and gingival human fibroblasts (kindly provided by Dra. María Dolores Farfán from Facultad de Odontología, Universidad Nacional Autónoma de México). The assay procedure is described below. Cells were maintained in a DMEM medium supplemented with antibiotic-antimycotic (1X), L-glutamine (1X) and 10% fetal bovine serum. Cells were incubated in 25 mL plastic culture flasks (Nunc) at 37 °C and 5% CO2. After the cell cultures grew to confluence, we determined the cell viability by using Trypan Blue method; then, cells were seeded at 4 × 10^4 cells/well in 100 µL culture medium during 24 hours. […] DMSO was maintained constant at 0.2%; a control was performed by incubating cells with this solvent concentration but in absence of compounds. After incubation time, we measured the cell viability by using MTT (3-(4,5-Dimethyl-2-thiazolyl)-2,5-diphenyl-2H-tetrazolium bromide; Roche Diagnostics) method. Briefly, 10 µL MTT (5 mg/mL) was added to cell cultures and incubated at 37 °C during four hours; then, 100 µL of solution containing 10% SDS and 0.01N HCl was added. Thereafter, the formazan products were spectrophotometrically quantified at 570 nm (Labxystem Uniskan, Manchester). The CC50 (median cytotoxicity concentration) and CI95 (95% confidence interval) values from each experiment were determined from the concentration-percentage plots of cell viability obtained by logistic regression. Statistical analysis was performed using the SPPSS software (version 17.0).
# [4] = Cytotoxicity assay (MTT) in VERO cells; format: cell-based; details: African green monkey, VERO cells (ATCC CCL-81); 24 hours, MTT; 95% confidence limits in square brackets
# Experimental: as §3, §4
# VERO cells = test: Cytotoxicity assay (MTT) in VERO cells; format: cell-based; details: for CC50 mammal cells relative to IC50 for trophozoites: mammal cells: human fibroblasts and VERO cells together
# Experimental: as §3, §4
# [5] = Solubility (remark in the discussion); format: physicochemical
# mutant GlTIM C222A = biological target: T3, mutant GlTIM C222A (Giardia intestinalis, UniProt P36186, C202A/C222A); test: Inactivation assay of mutant GlTIM C222A; format: biochemical, Giardia lamblia
# T3 construct: made in house
# Experimental: as §1, with “For all assays, the enzymes were freshly prepared with no more of two weeks of storage.” left out
# (§5) TIM activity was determined in a Cary50 spectrophotometer (Varian) at 25 °C using coupling assay following the conversion of D-glyceraldehyde 3-phosphate to dihydroxyacetone phosphate as described before. […]
# as §2, with “Then, the k 1 values were re-plotted against the employed concentrations of each compound; the second-order rate constant value of inactivation was obtained from the slope of these plots.” left out
# human TIM (HsTIM) = biological target: T4, human TIM (HsTIM) (Homo sapiens, UniProt P60174); test: Inactivation assay of human TIM; format: biochemical
# T4 construct: made in house
# Experimental: as §1, with “For all assays, the enzymes were freshly prepared with no more of two weeks of storage.” left out
# as §5
# as §2, with “Then, the k 1 values were re-plotted against the employed concentrations of each compound; the second-order rate constant value of inactivation was obtained from the slope of these plots.” left out
# [6] = test system: gingival human fibroblasts; test: Cytotoxicity assay (MTT) in human fibroblasts; format: cell-based; details: 24 hours, 95% confidence limits in square brackets
# Experimental: as §3, §4
# [7] = biological target: T1, triosephosphate isomerase of G. lamblia (GlTIM); details: cited from earlier work
# T1 sequence (P36186 whole entry C202A): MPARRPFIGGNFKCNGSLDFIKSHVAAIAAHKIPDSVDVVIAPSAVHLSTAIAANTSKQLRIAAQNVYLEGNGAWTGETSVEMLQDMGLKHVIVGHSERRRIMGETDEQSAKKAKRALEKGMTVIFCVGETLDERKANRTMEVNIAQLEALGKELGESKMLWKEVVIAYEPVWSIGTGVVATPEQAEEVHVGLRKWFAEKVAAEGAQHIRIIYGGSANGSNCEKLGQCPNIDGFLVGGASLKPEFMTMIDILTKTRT
# T2 sequence (P36186 whole entry C202A): as above
# T4 sequence (P60174 whole entry): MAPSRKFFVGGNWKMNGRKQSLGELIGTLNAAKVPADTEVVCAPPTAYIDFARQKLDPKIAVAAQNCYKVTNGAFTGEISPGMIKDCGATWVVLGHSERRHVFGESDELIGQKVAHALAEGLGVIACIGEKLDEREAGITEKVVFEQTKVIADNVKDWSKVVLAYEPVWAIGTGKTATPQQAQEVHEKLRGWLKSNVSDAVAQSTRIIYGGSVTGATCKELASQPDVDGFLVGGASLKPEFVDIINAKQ
# T3 sequence (P36186 whole entry C202A/C222A): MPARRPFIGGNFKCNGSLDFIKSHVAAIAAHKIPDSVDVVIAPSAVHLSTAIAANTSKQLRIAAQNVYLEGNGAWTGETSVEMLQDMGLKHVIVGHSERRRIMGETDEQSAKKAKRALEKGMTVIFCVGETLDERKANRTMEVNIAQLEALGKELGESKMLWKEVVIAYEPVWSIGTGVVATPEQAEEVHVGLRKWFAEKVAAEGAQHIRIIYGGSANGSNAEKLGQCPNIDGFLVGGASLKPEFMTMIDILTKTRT
Structure (SMILES),IC50 [1] [µM],Increase of reactivity against GlTIM respect to omeprazole [1],Reversibility of GlTIM inhibition [1],kinact/KI [1] [M⁻¹ s⁻¹],Number of free Cys per monomer after treatment (GlTIM) [Cys/monomer],Number of free Cys per monomer after treatment and then DTT (GlTIM) [Cys/monomer],IC50 [2] [µM],CC50 at 24 h [3] [mM],CC50 at 24 h [4] [mM],CC50 mammal cells relative to IC50 for trophozoites (VERO cells),melting point [°C],Inactivation of GlTIM (in words) [1],Solubility respect to omeprazole [5],Effect on activity of mutant GlTIM C222A (in words) (mutant GlTIM C222A),Inactivation of HsTIM (in words) (human TIM (HsTIM)),CC50 Human Fibroblasts [6],CC50 Human Fibroblasts ([6]; listed as omeprazole),CC50 VERO cells relative to trophozoites cytotoxicity (VERO cells) [fold],"Reversibility of GlTIM inhibition, reported before [7]","Second-order rate constant of inactivation, previously reported [7] [M⁻¹ s⁻¹]"
"Cc1ccc2nc([S+]([O-])Cc3nccc(OCC(F)(F)F)c3C)[nH]c2c1 (centres unmarked) [BHO3, 5(6)-Methyl-2-({[3-methyl-4-(2,2,2-trifluoroethoxy)pyridin-2-yl]methyl}sulfinyl]-1H-benzimidazole]",100,two-fold,irreversibly,1.2 ± 0.06,2.15 ± 015,1.8 ± 0.18,122 ± 1.7,5.5,4.7,38- to 61 fold,228.5 to 229.8,–,–,–,–,–,–,–,–,–
"Cc1ccc2nc([S+]([O-])Cc3ccccn3)[nH]c2c1 (centres unmarked) [BHO1, 5(6)-methyl-2-[(pyridin-2-ylmethyl)sulfinyl]−1H-benzimidazole]",–,–,–,–,–,–,–,–,–,–,121.3 to 122.9,inactivated scarcely,–,–,–,–,–,–,–,–
"COc1c(C)cnc(C[S+]([O-])c2nc3ccc(C)cc3[nH]2)c1C (centres unmarked) [BHO2, 2-[(4-methoxy-3,5-dimethylpyridin-2-yl)methylsulfinyl]-5(6)-methyl-1H-benzimidazole]",64,three-fold,irreversibly,1.6 ± 0.1,1.9 ± 0.2,–,130,5,8,38- to 61 fold,221.4 to 222.8,–,improved its solubility,–,–,–,–,–,–,–
"COc1ccc2[nH]c([S+]([O-])Cc3ncc(C)c(OC)c3C)nc2c1 (centres unmarked) [Omeprazole, omeprazole, reference compound]",225,–,–,0.78 ± 0.016,2.02 ± 0.02,2.2 ± 0.2,300 ± 10.2,–,14,–,–,inactivated the GlTIM completely,–,affects marginally,unaffected,No effect,did not show cytotoxic effect,46,irreversible,0.6
